Experiments:
E. faecium = test: Resistance serial passage assay; assay type: cell-based, Enterococcus faecium; details: 8 passages, concentration doubled each day
Procedure: (§1) ESKAPE pathogens were grown overnight in liquid media at 37° C. These cultures were then diluted 1:100 in fresh media, and seeded into a 96-well plate. Lead bis-cyclic guanidines or control agents were added to respective wells at half MIC concentrations. Plates were then incubated for 24 hours at 37° C., with bacteria removed from these cultures on the following day, to inoculate fresh media (1:100 dilution) containing compounds at a 2-fold higher concentrations. These were then grown overnight, and the procedure repeated for a total of eight days. […] Each experiment was performed in triplicate, yielding identical results.

A. baumannii = test: Resistance serial passage assay; assay type: cell-based, Acinetobacter baumannii; details: 8 passages, concentration doubled each day
Procedure: as §1

P. aeruginosa = test: MIC reanalysis in the presence of the efflux inhibitor reserpine; assay type: cell-based, Pseudomonas aeruginosa; details: P. aeruginosa isolate 1420; 100 μM of reserpine or 2 μM of compound 1 individually
Description: Given the minor variations observed in MIC for three of the Gram-negative organisms, and that these particular bacteria are renowned for efflux detoxification of antibacterial agents, we hypothesized that the differences observed likely relate to variation in efflux pump activity between strains. […] The effects observed appear to be universal, regardless of strain or compound tested. […] It should be noted that the data presented herein represents a worst-case scenario. […] Similar data was returned for all front runner agents, against all 10 isolates of the three Gram-negative organisms (data not shown). These findings support the hypothesis that inherent efflux mechanisms of certain Gram-negative organisms result in MIC variations for the lead bis-cyclic guanidines between clinical isolates.

MRSA cells = test: Time kill assay (lysis by OD600, viability by CFU); assay type: cell-based, Staphylococcus aureus; details: for cells remaining after exposure (optical density relative to starting values): MRSA, 2.0% SDS, 0.001% benzalkonium chloride, 0.001% benzethonium chloride; for cell recovery (viability, CFU/mL vs no drug control): after the 120 minute assay, agent washed out
Procedure: FIGS. 6A and 6B illustrates that bis-cyclic guanidines are bactericidal but not bacteriolytic. […] Shown is the optical density of cells relative to starting values from three independent experiments. Error bars are shown ±SEM. FIG. 8B is a graph illustrating cell viability of all samples after the 120 min experiment. Compounds were removed by centrifugation and washing of cells, followed by serial dilution and enumeration. Percent recovery was determined by comparison to no drug (ND) controls.
Time kill assays were performed in a 96-well microtiter plate using a BioTek Synergy2 plate reader. To prepare bacterial cultures, stationary phase MRSA cells were inoculated into fresh TSB and grown for 3 hours. After this time, cultures were inoculated into a 96-well microtiter plate at an OD600 of 0.5, followed by the addition of test agent at MIC concentrations. In parallel, 2.0% sodium dodecyl sulfate (SDS), 0.001% benzalkonium chloride, 0.001% benzethonium chloride, and 4 μM lysostaphin were used as positive controls. […] Assays were performed in triplicate over the span of 130 minutes, with OD600 readings taken every 10 minutes.

[1] = tested on: human red blood cells (hRBCs)
Procedure: A hemolysis assay was performed using whole human blood (Bioreclamation), as described previously,^47 with the following modifications. Human red blood cells (hRBCs) were resuspended 20% v/v in 1× HA buffer (4.25 ml 10% NaCl; 1 ml CaCl2 in 50 ml sterile water), and lead agents were added at a concentration of 10 μM, to a final volume of 100 μl. Cells were incubated for 15 minutes at 37° C. before being centrifuged at 5,500 g for 1 minute to pellet non-lysed hRBCs. The supernatant was removed, added to a 96-well microtiter plate and the OD543 read using a Biotek synergy2 plate reader. The negative control was vehicle only (DMF), and the positive control was 1.0% triton X-100.

K. pneumoniae = test: Resistance serial passage assay; assay type: cell-based, Klebsiella pneumoniae; details: 8 passages, concentration doubled each day
Procedure: as §1

[2] = tested on: Staphylococcus aureus (USA300 strain FPR3757); test: Murine model of lethal peritonitis; assay type: in vivo, mice; details: I.V.
Procedure: Using MRSA as a representative ESKAPE organism, we infected mice with 1×10^8 bacterial cells in 5% mucin via intraperitoneal injection. At 1 h post-infection, mice were then I.V. injected with either vancomycin (positive control), or I.M. with our front runner compounds.
Six mice per group were injected with 1×10^8 CFU ml^−1 of Staphylococcus aureus (USA300 strain FPR3757) in PBS containing 5% mucin. […] Mice were monitored twice daily for five days to assess mortality. The clinical endpoint of this study was when the mice reached a pre-moribund state. Characteristics of pre-moribund state include: hunched posture, rapid, shallow and/or labored breathing, ruffled fur, lethargy, failure to respond to stimuli, soiled anogenital area, paralysis, paresis, head tilt, circling, vocalizations, non-purposeful movements and/or were unable to eat or drink. Those mice reaching this state prior to the completion of the 5 day infection period were euthanized. The number of mice surviving between control and treatment groups was compared and analyzed for statistical significance using a log rank test.

S. aureus = test: Resistance serial passage assay; assay type: cell-based, Staphylococcus aureus; details: 8 passages, concentration doubled each day
Procedure: as §1

ESKAPE pathogens = test: MIC micro broth dilution assay, statements and stacked scores over all ESKAPE pathogens; assay type: cell-based; details: letters E,S,K,A,P,E = ESKAPE pathogens, — = none
Procedure: (§2) For this study we used a representative panel of multi-drug resistant clinical ESKAPE pathogen isolates (Supplemental Table S6).^42 43 3a, 44 45 Gram-positive organisms were grown in tryptic soy broth media (TSB), whilst Gram-negative organisms were grown in lysogeny Broth (LB), as described by us previously. ^43 MIC and MBC determination assays.
(§3) The minimum inhibitory concentration (MIC) for the combinatorial libraries, deconvolved 2157 library, and individual compounds were determined as follows. Broth cultures of ESKAPE strains were grown overnight before being diluted 1 in 1,000 in fresh media. Sterile 96-well plates were loaded with culture and compounds (in DMF) were added at decreasing concentrations to equal a total volume of 200 μl per well. Care was taken to not add more than 2.0% DMF to any well. Plates were then incubated at 37° C., and MICs determined after 24 hours by visual inspection for a lack of turbidity in wells. All assays were performed in triplicate with identical results obtained. For both the scaffold ranking and positional scanning samples, relative broad-spectrum activity was determined via stacked scores: […]

Staphylococcus aureus = test: MIC micro broth dilution assay; assay type: cell-based; design: key to stacked score activity, 100/MIC, S: stacked score = 100/MIC; details: S. aureus
Procedure: as §2
as §3, with “Broth” for “The minimum inhibitory concentration (MIC) for the combinatorial libraries, deconvolved 2157 library, and individual compounds were determined as follows. Broth”

Enterobacter cloacae = test: MIC micro broth dilution assay; assay type: cell-based; design: key to stacked score activity, 100/MIC, E: stacked score = 100/MIC; details: E. cloacae
Procedure: as §2
as §3, with “Broth” for “The minimum inhibitory concentration (MIC) for the combinatorial libraries, deconvolved 2157 library, and individual compounds were determined as follows. Broth”

Enterococcus faecium = test: MIC micro broth dilution assay; assay type: cell-based; design: key to stacked score activity, 100/MIC, E: stacked score = 100/MIC; details: E. faecium
Procedure: as §2
as §3, with “Broth” for “The minimum inhibitory concentration (MIC) for the combinatorial libraries, deconvolved 2157 library, and individual compounds were determined as follows. Broth”

Klebsiella pneumoniae = test: MIC micro broth dilution assay; assay type: cell-based; design: key to stacked score activity, 100/MIC, K: stacked score = 100/MIC; details: K. pneumoniae
Procedure: as §2
as §3, with “Broth” for “The minimum inhibitory concentration (MIC) for the combinatorial libraries, deconvolved 2157 library, and individual compounds were determined as follows. Broth”

Acinetobacter baumannii = test: MIC micro broth dilution assay; assay type: cell-based; design: key to stacked score activity, 100/MIC, A: stacked score = 100/MIC; details: A. baumannii
Procedure: as §2
as §3, with “Broth” for “The minimum inhibitory concentration (MIC) for the combinatorial libraries, deconvolved 2157 library, and individual compounds were determined as follows. Broth”

## CN(C)[C@@H]1C(O)=C(C(N)=O)C(=O)[C@@]2(O)C(O)=C3C(=O)c4c(O)cccc4[C@@](C)(O)[C@H]3C[C@@H]12 [tetracycline, reference compound]
E. faecium
  increase in MIC after serial passage: 128 fold
A. baumannii
  increase in MIC after serial passage: 128 fold

## COC(=O)[C@H]1[C@H]2C[C@@H]3c4[nH]c5cc(OC)ccc5c4CCN3C[C@H]2C[C@@H](OC(=O)c2cc(OC)c(OC)c(OC)c2)[C@@H]1OC [reserpine, reference compound]
P. aeruginosa
  effect on growth, agent alone: no effect

## CC(C)(C)CC(C)(C)c1ccc(OCCOCC[N+](C)(C)Cc2ccccc2)cc1 [benzethonium chloride]
MRSA cells
  cells remaining after exposure (optical density relative to starting values): 32.63%
  cell recovery (viability, CFU/mL vs no drug control): 0%

## CCCCCCCCCCCCOS(=O)(=O)[O-].[Na+] [SDS, sodium dodecyl sulfate]
MRSA cells
  cells remaining after exposure (optical density relative to starting values): 52.2%
  cell recovery (viability, CFU/mL vs no drug control): 0%

## C[C@H]1c2cccc(O)c2C(=O)C2=C(O)[C@]3(O)C(=O)C(C(N)=O)=C(O)[C@@H](N(C)C)[C@@H]3[C@@H](O)[C@@H]21 [doxycycline]
MRSA cells
  cell recovery (viability, CFU/mL vs no drug control): 92%

## Triton-X100
[1]
  hemolysis: 100%

## lysostaphin: a S. aureus specific lytic agent, positive control
MRSA cells
  cell recovery (viability, CFU/mL vs no drug control): 0%
MRSA cells; within 10 minutes of exposure, 4 μM lysostaphin
  lysis of MRSA cells: > 50%

## benzalkonium chloride [listing 1 of 2 here]
MRSA cells
  cells remaining after exposure (optical density relative to starting values): 28.56%

## CO[C@H]1/C=C/O[C@@]2(C)Oc3c(C)c(O)c4c(O)c(c(/C=N/N5CCN(C)CC5)c(O)c4c3C2=O)NC(=O)/C(C)=C\C=C\[C@H](C)[C@H](O)[C@@H](C)[C@@H](O)[C@@H](C)[C@H](OC(C)=O)[C@@H]1C [rifampin, reference compound]
K. pneumoniae
  increase in MIC after serial passage: 128 fold

## benzalkonium chloride [listing 2 of 2 here]
MRSA cells
  cell recovery (viability, CFU/mL vs no drug control): 0%

## CN[C@H](CC(C)C)C(=O)N[C@H]1C(=O)N[C@@H](CC(N)=O)C(=O)N[C@H]2C(=O)N[C@H]3C(=O)N[C@H](C(=O)N[C@H](C(=O)O)c4cc(O)cc(O)c4-c4cc3ccc4O)[C@H](O)c3ccc(c(Cl)c3)Oc3cc2cc(c3O[C@@H]2O[C@H](CO)[C@@H](O)[C@H](O)[C@H]2O[C@H]2C[C@](C)(N)[C@H](O)[C@H](C)O2)Oc2ccc(cc2Cl)[C@H]1O [vancomycin, reference compound]
[2]; 5× MIC, 1 h post-infection (not significant)
  protectivity: 50%
[2]; 10× MIC, 1 h post-infection
  protectivity: 100%
S. aureus
  increase in MIC after serial passage: 128 fold

## N=C1NC[C@H](CCCCN2C[C@@H](Cc3cccc4ccccc34)N(CCc3ccc(-c4ccccc4)cc3)C2=N)N1CCc1cccc(C(F)(F)F)c1 [Compound 6]
ESKAPE pathogens
  pathogens against which the compound showed activity at 5 ug/ml: SKAE
  pathogens against which the compound showed activity at 10 ug/ml: ESKAE
  pathogens against which the compound showed activity at 25 ug/ml: ESKAPE
Staphylococcus aureus
  stacked score activity, 100/MIC, S: 20
Enterobacter cloacae
  stacked score activity, 100/MIC, E: 20
Enterococcus faecium
  stacked score activity, 100/MIC, E: 10
Klebsiella pneumoniae
  stacked score activity, 100/MIC, K: 20
Acinetobacter baumannii
  stacked score activity, 100/MIC, A: 20

## N=C1NC[C@H](CCCCN2C[C@H](CC3CCCCC3)N(CCc3ccc(-c4ccccc4)cc3)C2=N)N1CCc1cccc(C(F)(F)F)c1 [Compound 9]
ESKAPE pathogens
  pathogens against which the compound showed activity at 5 ug/ml: ESKAPE
  pathogens against which the compound showed activity at 10 ug/ml: ESKAPE
  pathogens against which the compound showed activity at 25 ug/ml: ESKAPE
Staphylococcus aureus
  stacked score activity, 100/MIC, S: 20
Enterobacter cloacae
  stacked score activity, 100/MIC, E: 20
Enterococcus faecium
  stacked score activity, 100/MIC, E: 25
Klebsiella pneumoniae
  stacked score activity, 100/MIC, K: 20
Acinetobacter baumannii
  stacked score activity, 100/MIC, A: 20

## CCCC[C@H]1CN(CCCC[C@H]2CNC(=N)N2CCCCC2CCCCC2)C(=N)N1CCCCC1CCCCC1 [Compound 11]
ESKAPE pathogens
  pathogens against which the compound showed activity at 5 ug/ml: ESAPE
  pathogens against which the compound showed activity at 10 ug/ml: ESKAPE
  pathogens against which the compound showed activity at 25 ug/ml: ESKAPE
Staphylococcus aureus
  stacked score activity, 100/MIC, S: 20
Enterobacter cloacae
  stacked score activity, 100/MIC, E: 20
Enterococcus faecium
  stacked score activity, 100/MIC, E: 50
Klebsiella pneumoniae
  stacked score activity, 100/MIC, K: 20
Acinetobacter baumannii
  stacked score activity, 100/MIC, A: 25

## CCCCCCCN1C(=N)N(CCCC[C@H]2CNC(=N)N2CCC23CC4CC(CC(C4)C2)C3)C[C@@H]1CC1CCCCC1 [Compound 25]
ESKAPE pathogens; dose 4 ug/ml
  pathogens against which the compound showed activity at 4 ug/ml: EAP
ESKAPE pathogens
  pathogens against which the compound showed activity at 5 ug/ml: ESKAPE
  pathogens against which the compound showed activity at 10 ug/ml: ESKAPE
  pathogens against which the compound showed activity at 25 ug/ml: ESKAPE
Staphylococcus aureus
  stacked score activity, 100/MIC, S: 20
Enterobacter cloacae
  stacked score activity, 100/MIC, E: 20
Enterococcus faecium
  stacked score activity, 100/MIC, E: 50
Klebsiella pneumoniae
  stacked score activity, 100/MIC, K: 20
Acinetobacter baumannii
  stacked score activity, 100/MIC, A: 25

## CCCC[C@H]1CN(CCCC[C@H]2CNC(=N)N2CCCCC2CCCCC2)C(=N)N1CCc1ccc(-c2ccccc2)cc1 [Compound 12]
ESKAPE pathogens
  pathogens against which the compound showed activity at 5 ug/ml: ESKAE
  pathogens against which the compound showed activity at 10 ug/ml: ESKAPE
  pathogens against which the compound showed activity at 25 ug/ml: ESKAPE
Staphylococcus aureus
  stacked score activity, 100/MIC, S: 20
Enterobacter cloacae
  stacked score activity, 100/MIC, E: 20
Enterococcus faecium
  stacked score activity, 100/MIC, E: 20
Klebsiella pneumoniae
  stacked score activity, 100/MIC, K: 20
Acinetobacter baumannii
  stacked score activity, 100/MIC, A: 25

From US20170065564A1, “BIS-CYCLIC GUANIDINE COMPOUND COMPOSITIONS, METHODS OF USE AND TREATMENT THEREOF” (University of South Florida, priority 2014, published 2017)
